For 13 compounds, melting point, pest or weed control and inhibition results are on record in patent US20210284633A1, “3-(2-THIENYL)-5-(TRIFLUOROMETHYL)-1,2,4-OXADIAZOLE DERIVATIVES AS AGROCHEMICAL FUNGICIDES” (SYNGENTA CROP PROTECTION AG, priority 2018, published 2021).

The subject of data set [1] is Puccinia recondita f. Sp. tritici. In words: Puccinia recondita f. sp. tritici / wheat / leaf disc preventative (brown rust). It is filed as in vivo. The following applies: foliar, 200 ppm in the applied formulation, wheat leaf segments cv. Kanzler, inoculated 1 day after application, assessed 7 to 9 days after application, compared to untreated, read-out: disease control. The method, then: Leaf disks or leaf segments of various plant species are cut from plants grown in a greenhouse. The cut leaf disks or segments are placed in multiwell plates (24-well format) onto water agar. The leaf disks are sprayed with a test solution before (preventative) or after (curative) inoculation. Compounds to be tested are prepared as DMSO solutions (max. 10 mg/mL) which are diluted to the appropriate concentration with 0.025% Tween20 just before spraying. The inoculated leaf disks or segments are incubated under defined conditions (temperature, relative humidity, light, etc.) according to the respective test system. A single evaluation of disease level is carried out 3 to 14 days after inoculation, depending on the pathosystem. Percent disease control relative to the untreated check leaf disks or segments is then calculated. Example 1: Fungicidal Activity Against Puccinia recondita f. Sp. tritici/Wheat/Leaf Disc Preventative (Brown Rust) Wheat leaf segments cv. Kanzler were placed on agar in multiwell plates (24-well format) and sprayed with the formulated test compound diluted in water. The leaf disks were inoculated with a spore suspension of the fungus 1 day after application. The inoculated leaf segments were incubated at 19° C. and 75% relative humidity (rh) under a light regime of 12 hours light/12 hours darkness in a climate cabinet and the activity of a compound was assessed as percent disease control compared to untreated when an appropriate level of disease damage appears in untreated check leaf segments (7 to 9 days after application). The following compounds at 200 ppm in the applied formulation give at least 80% disease control in this test when compared to untreated control leaf disks under the same conditions, which show extensive disease development.

Data set [2] has the same test system. In words: Puccinia recondita f. sp. tritici / wheat / leaf disc curative (brown rust). In kind it is in vivo. The conditions noted are these: foliar, 200 ppm in the applied formulation, wheat leaf segments cv. Kanzler, applied 1 day after inoculation, assessed 6 to 8 days after application, compared to untreated, read-out: disease control. The protocol:
Leaf disks or leaf segments of various plant species are cut from plants grown in a greenhouse. The cut leaf disks or segments are placed in multiwell plates (24-well format) onto water agar. The leaf disks are sprayed with a test solution before (preventative) or after (curative) inoculation. Compounds to be tested are prepared as DMSO solutions (max. 10 mg/mL) which are diluted to the appropriate concentration with 0.025% Tween20 just before spraying. The inoculated leaf disks or segments are incubated under defined conditions (temperature, relative humidity, light, etc.) according to the respective test system. A single evaluation of disease level is carried out 3 to 14 days after inoculation, depending on the pathosystem. Percent disease control relative to the untreated check leaf disks or segments is then calculated. Example 2: Fungicidal Activity Against Puccinia recondita f. sp. tritici/Wheat/Leaf Disc Curative (Brown Rust) Wheat leaf segments cv. Kanzler are placed on agar in multiwell plates (24-well format). The leaf segments are then inoculated with a spore suspension of the fungus. Plates were stored in darkness at 19° C. and 75% relative humidity. The formulated test compound diluted in water was applied 1 day after inoculation. The leaf segments were incubated at 19° C. and 75% relative humidity under a light regime of 12 hours light/12 hours darkness in a climate cabinet and the activity of a compound was assessed as percent disease control compared to untreated when an appropriate level of disease damage appears in untreated check leaf segments (6 to 8 days after application). The following compounds at 200 ppm in the applied formulation give at least 80% disease control in this test when compared to untreated control leaf disks under the same conditions, which show extensive disease development.

Data set [3] has as its system Glomerella lagenarium. In words: Glomerella lagenarium liquid culture / cucumber / preventative (anthracnose). In kind it is cell-based. The following applies: Colletotrichum orbiculare; 20 ppm in the applied formulation; liquid culture in PDB, 24° C.; measured 3 to 4 days after application; compared to untreated; read-out: disease control (inhibition of growth, photometric). The protocol: Mycelia fragments or conidia suspensions of a fungus prepared either freshly from liquid cultures of the fungus or from cryogenic storage, are directly mixed into nutrient broth. DMSO solutions of the test compound (max. 10 mg/mL) are diluted with 0.025% Tween20 by a factor of 50 and 10 μL of this solution is pipetted into a microtiter plate (96-well format). The nutrient broth containing the fungal spores/mycelia fragments is then added to give an end concentration of the tested compound. The test plates are incubated in the dark at 24° C. and 96% relative humidity. The inhibition of fungal growth is determined photometrically after 2 to 7 days, depending on the pathosystem, and percent antifungal activity relative to the untreated check is calculated. Example 4: Fungicidal activity against Glomerella lagenarium liquid culture/cucumber/Preventative (Anthracnose) Conidia of the fungus from cryogenic storage are directly mixed into nutrient broth (PDB—potato dextrose broth). After placing a (DMSO) solution of test compound into a microtiter plate (96-well format), the nutrient broth containing the fungal spores is added. The test plates are incubated at 24° C. and the inhibition of growth is measured photometrically 3 to 4 days after application. The following compounds at 20 ppm in the applied formulation give at least 80% disease control in this test when compared to untreated control under the same conditions, which show extensive disease development.

Data set [4] concerns Phakopsora pachurhizi. Put plainly: Phakopsora pachurhizi / soybean / leaf disc preventative (Asian soybean rust). In kind it is in vivo. The conditions noted are these: Glycine max, foliar, 200 ppm in the applied formulation, soybean leaf disks, inoculated one day after application, assessed 12 to 14 days after application, compared to untreated, read-out: disease control. The method, then:
Leaf disks or leaf segments of various plant species are cut from plants grown in a greenhouse. The cut leaf disks or segments are placed in multiwell plates (24-well format) onto water agar. The leaf disks are sprayed with a test solution before (preventative) or after (curative) inoculation. Compounds to be tested are prepared as DMSO solutions (max. 10 mg/mL) which are diluted to the appropriate concentration with 0.025% Tween20 just before spraying. The inoculated leaf disks or segments are incubated under defined conditions (temperature, relative humidity, light, etc.) according to the respective test system. A single evaluation of disease level is carried out 3 to 14 days after inoculation, depending on the pathosystem. Percent disease control relative to the untreated check leaf disks or segments is then calculated.
Example 3: Fungicidal Activity Against Phakopsora pachurhizi/Soybean/Leaf Disc Preventative (Asian Soybean Rust)
Soybean leaf disks are placed on water agar in multiwell plates (24-well format) and sprayed with the formulated test compound diluted in water. One day after application leaf discs are inoculated by spraying a spore suspension on the lower leaf surface. After an incubation period in a climate cabinet of 24-36 hours in darkness at 20° C. and 75% rh leaf disc are kept at 20° C. with 12 hours light/day and 75% rh. The activity of a compound is assessed as percent disease control compared to untreated when an appropriate level of disease damage appears in untreated check leaf disks (12 to 14 days after application).
The following compounds at 200 ppm in the applied formulation give at least 80% disease control in this test when compared to untreated control leaf disks under the same conditions, which show extensive disease development.

In general, melting point refers to the temperature of the solid-liquid transition. One may read the inhibition as the share of the control response that was lost under treatment.

The compound `O=C(c1ncccn1)c1ccc(-c2noc(C(F)(F)F)n2)s1` [Compound 1.7, pyrimidin-2-yl-[5-[5-(trifluoromethyl)-1,2,4-oxadiazol-3-yl]-2-thienyl]methanone] came in with a melting point of 110 to 116 °C. Also, the pest or weed control at 200 ppm in data set [1] was not below 80%. The pest or weed control at 200 ppm in data set [2] is not below 80%. The inhibition at 20 ppm in data set [3] is not below 80%. Besides, the pest or weed control at 200 ppm in data set [4] is not below 80%.
As to `Cc1ccc(C(=O)c2ccc(-c3noc(C(F)(F)F)n3)s2)nc1` [Compound 1.12, (5-methyl-2-pyridyl)-[5-[5-(trifluoromethyl)-1,2,4-oxadiazol-3-yl]-2-thienyl]methanone], the melting point was 111 to 114 °C. The pest or weed control at 200 ppm in data set [1] was not below 80%. In addition, in data set [2], the pest or weed control at 200 ppm was not below 80%. In data set [3], the inhibition at 20 ppm is not below 80%. In addition, the pest or weed control at 200 ppm in data set [4] was not below 80%.
Take `Cc1cnc(Cc2ccc(-c3noc(C(F)(F)F)n3)s2)cn1` [Compound 1.1, 3-[5-[(5-methylpyrazin-2-yl)methyl]-2-thienyl]-5-(trifluoromethyl)-1,2,4-oxadiazole]: the pest or weed control at 200 ppm in data set [1], in data set [2] and in data set [4] was not below 80% in each case. Further, the inhibition at 20 ppm in data set [3] is not below 80%.
As to `Cc1ccc(C(=O)c2ccc(-c3noc(C(F)(F)F)n3)s2)nc1C` [Compound 1.8, (5,6-dimethyl-2-pyridyl)-[5-[5-(trifluoromethyl)-1,2,4-oxadiazol-3-yl]-2-thienyl]methanone], the melting point lay within 98 to 112 °C. Moreover, the pest or weed control at 200 ppm in data set [1] was not below 80%. Also, the pest or weed control at 200 ppm in data set [2] is not below 80%. Also, the pest or weed control at 200 ppm in data set [4] was not below 80%.
On to `CCC(O)(c1ccc(C)cn1)c1ccc(-c2noc(C(F)(F)F)n2)s1` (stereo not drawn) [Compound 1.10, 1-(5-methyl-2-pyridyl)-1-[5-[5-(trifluoromethyl)-1,2,4-oxadiazol-3-yl]-2-thienyl]propan-1-ol], for which the pest or weed control at 200 ppm in data set [1], in data set [2] and in data set [4] was not below 80% each time. The inhibition at 20 ppm in data set [3] is not below 80%.
On to `Cc1cnc(C(=O)c2ccc(-c3noc(C(F)(F)F)n3)s2)cn1` [Compound 1.2, (5-methylpyrazin-2-yl)-[5-[5-(trifluoromethyl)-1,2,4-oxadiazol-3-yl]-2-thienyl]methanone], for which the melting point fell in the range of 105 to 110 °C. In addition, the pest or weed control at 200 ppm in data set [1] was not below 80%. In addition, the pest or weed control at 200 ppm in data set [2] was not below 80%. In addition, in data set [3], the inhibition at 20 ppm is not below 80%. Further, the pest or weed control at 200 ppm in data set [4] was not below 80%.
Consider `Cc1ccc(C(O)c2ccc(-c3noc(C(F)(F)F)n3)s2)nc1` (stereo not drawn) [Compound 1.13, (5-methyl-2-pyridyl)-[5-[5-(trifluoromethyl)-1,2,4-oxadiazol-3-yl]-2-thienyl]methanol], for which the pest or weed control at 200 ppm in data set [1], in data set [2] and in data set [4] was not below 80% in each case. In data set [3], the inhibition at 20 ppm is not below 80%.
Regarding `O=C(c1cnccn1)c1ccc(-c2noc(C(F)(F)F)n2)s1` [Compound 1.5, pyrazin-2-yl-[5-[5-(trifluoromethyl)-1,2,4-oxadiazol-3-yl]-2-thienyl]methanone], the melting point lay within 95 to 105 °C. Also, the pest or weed control at 200 ppm in data set [1] was not below 80%. Moreover, in data set [2], the pest or weed control at 200 ppm was not below 80%. Moreover, the inhibition at 20 ppm in data set [3] was not below 80%. Moreover, in data set [4], the pest or weed control at 200 ppm was not below 80%.
As to `Cc1ccc(Cc2ccc(-c3noc(C(F)(F)F)n3)s2)nc1` [Compound 1.11, 3-[5-[(5-methyl-2-pyridyl)methyl]-2-thienyl]-5-(trifluoromethyl)-1,2,4-oxadiazole], the melting point lay in the range of 40 to 45 °C. For the same compound, the pest or weed control at 200 ppm in data set [1] was not below 80%. Also, the pest or weed control at 200 ppm in data set [2] is not below 80%. The inhibition at 20 ppm in data set [3] is not below 80%. Besides, the pest or weed control at 200 ppm in data set [4] was not below 80%.
Compound `Cc1cnc(C(O)c2ccc(-c3noc(C(F)(F)F)n3)s2)cn1` (stereo not drawn) [Compound 1.3, (5-methylpyrazin-2-yl)-[5-[5-(trifluoromethyl)-1,2,4-oxadiazol-3-yl]-2-thienyl]methanol] showed a melting point of 95 to 100 °C. Further, the pest or weed control at 200 ppm in data set [1] is not below 80%. For the same compound, the pest or weed control at 200 ppm in data set [2] is not below 80%. Besides, the inhibition at 20 ppm in data set [3] is not below 80%. Also, the pest or weed control at 200 ppm in data set [4] is not below 80%.
`O=C(c1cnc(Cl)cn1)c1ccc(-c2noc(C(F)(F)F)n2)s1` [Compound 1.9, (5-chloropyrazin-2-yl)-[5-[5-(trifluoromethyl)-1,2,4-oxadiazol-3-yl]-2-thienyl]methanone] yielded a melting point of 80 to 85 °C. Besides, the pest or weed control at 200 ppm in data set [1] is not below 80%. The pest or weed control at 200 ppm in data set [2] was not below 80%. The inhibition at 20 ppm in data set [3] is not below 80%.
For `OC(c1cnccn1)c1ccc(-c2noc(C(F)(F)F)n2)s1` (stereo not drawn) [Compound 1.6, pyrazin-2-yl-[5-[5-(trifluoromethyl)-1,2,4-oxadiazol-3-yl]-2-thienyl]methanol], the pest or weed control at 200 ppm in data set [1] and in data set [2] was not below 80% each time. Besides, the inhibition at 20 ppm in data set [3] was not below 80%.
Consider `FC(F)(F)c1nc(-c2ccc(Cc3cnccn3)s2)no1` [Compound 1.4, 3-[5-(pyrazin-2-ylmethyl)-2-thienyl]-5-(trifluoromethyl)-1,2,4-oxadiazole], for which the pest or weed control at 200 ppm in data set [1], in data set [2] and in data set [4] was not below 80% each time. For the same compound, in data set [3], the inhibition at 20 ppm was not below 80%.
